Measurements: patent US20240325389A1, “NEW THERAPEUTIC TARGETS WITH AN ANTI-INFLAMMATORY AND ANTI-INTERFERON EFFECT” (priority 2020, published 2024)
Like-named read-outs stand apart in the source and are kept apart here.

How the values were obtained:
[1] = test system: peripheral blood mononuclear cells (PBMCs) of healthy donors; assay: Cytokine and interferon secretion by PBMCs after TLR4 (LPS) stimulation, LegendPlex; assay type: cell-based, human; conditions: inhibitor 1 h before LPS 100 ng/ml (TLR4), 24 h
[2] = test system: peripheral blood mononuclear cells (PBMCs); assay: Interferon production by cGAMP-stimulated PBMCs, STING-37 reporter
[3] = test system: monocytes of healthy donors; assay: Intracellular TNFα production in monocytes after TLR7/8 (R848) stimulation, flow cytometry; assay type: cell-based, human; conditions: for production of inflammatory cytokines: PBMCs and purified monocytes of healthy donors, Toll-like receptor 7/8 (R848); for intracellular production of inflammatory cytokines (TNFα): monocytes, inhibitor 1 h before R848 5 μg/ml (TLR7/8), 16 h
[4] = test system: 1C11^5-HT serotonergic neurons; assay: mRNA encoding TNFα, IL6 and MCP1 in LPS-activated 1C11^5-HT neurons, RT-qPCR; assay type: cell-based, Mus; conditions: inhibitor 1 h before LPS 100 ng/ml
[5] = test system: T lymphocytes; assay: Activation of T lymphocytes by CD3/CD28 beads (CD69), flow cytometry; assay type: cell-based, human; conditions: inhibitor 1 h at 1 and 5 μM, then CD3/CD28 beads 3 days
[6] = test system: DBA/1J mice; conditions: for total average arthritis scores (histopathology): with respect to the control vehicle
[7] = test system: monocytes of patients suffering from juvenile idiopathic arthritis; assay: Spontaneous TNFα production by monocytes of juvenile idiopathic arthritis patients, SIMOA; assay type: cell-based, human; conditions: monocytes incubated with inhibitor for 24 h, no stimulation
[8] = test system: HEK293; assay: Interferon production by cGAMP-stimulated HEK293 non-immune cells (STING-37), luciferase; conditions: inhibitor at 1 μM, cGAMP 3 μg/ml, 24 h
[9] = test system: peripheral blood mononuclear cells (PBMCs) of healthy donors; assay: Cytokine and interferon secretion by PBMCs in response to HIV, LegendPlex; assay type: cell-based, human; conditions: inhibitor 1 h before AT-2-inactivated HIV-1MN, 24 h
[10] = test system: THP1-Dual; assay: Interferon response of cGAMP-stimulated THP1-Dual cells, luciferase
[11] = test system: 1C11 neuroectodermal stem cells; assay: mRNA encoding TNFα, IL6 and MCP1 in LPS-activated 1C11 stem cells, RT-qPCR; assay type: cell-based, Mus; conditions: inhibitor 1 h before LPS 100 ng/ml
[12] = test system: monocytes of healthy donors; assay: Intracellular TNFα production in monocytes after TLR2 (LTA) stimulation, flow cytometry; assay type: cell-based, human; conditions: inhibitor 1 h before LTA 1 μg/ml (TLR2), 16 h
[13] = test system: THP1-Dual; assay: mRNA encoding TNFα, IL6 and MCP1 in LPS-activated THP1-Dual monocytes, RT-qPCR; assay type: cell-based, human; conditions: inhibitor 1 h before LPS 100 ng/ml
[14] = test system: peripheral blood mononuclear cells (PBMCs) of healthy donors; assay: Interferons secreted by R848-stimulated PBMCs, STING-37 reporter cell line; assay type: cell-based, human
[15] = test system: peripheral blood mononuclear cells (PBMCs) of healthy donors; assay: Cytokine and interferon secretion by PBMCs after TLR7/8 (R848) stimulation, LegendPlex; assay type: cell-based, human; conditions: for production and secretion of pro-inflammatory cytokines, such as IL-6, IL-1p and the interferons induced by the TLR7/8 stimulation / production of TNFα induced by the TLR7/8 stimulation: human PBMCs incubated with inhibitor before R848
[16] = test system: peripheral blood mononuclear cells (PBMCs) of healthy donors; assay: Test for toxicity of the compounds on PBMCs (CellTiter-Glo, ATP); assay type: cell-based, human; conditions: 24 h of cell culture
Procedure: Test for toxicity of the compounds on the peripheral blood mononuclear cells (PBMCs).
After 24 h of cell culture, the cell viability was determined using the CellTiter-Glo reagent (Promega), which evaluates the amount of ATP by luminescence using the EnSpire.

[17] = test system: B lymphocytes; assay: Activation of B lymphocytes by CpG-A (CD69), flow cytometry; assay type: cell-based, human; conditions: inhibitor 1 h at 1 μM, then CpG-A 1 μg/ml (TLR9) 24 h
[18] = test system: monocytes of healthy donors; assay: Intracellular TNFα production in monocytes after TLR4 (LPS) stimulation, flow cytometry; assay type: cell-based, human; conditions: for production of inflammatory cytokines: PBMCs and purified monocytes of healthy donors, Toll-like receptors 2/4 (lipoteichoic acid/LPS)
[19] = test system: monocytes of healthy donors; assay: Intracellular IL-1β and TNFα in monocytes after inflammasome activation by uric acid crystals (MSU, gout model), flow cytometry; assay type: cell-based, human; conditions: for production of inflammatory cytokines: monocytes of healthy donors, activation of the inflammasome by uric acid crystals
[20] = test system: plasmacytoid dendritic cells (pDC) of healthy donors; assay: Intracellular IFNα and TNFα in plasmacytoid dendritic cells in response to HIV, flow cytometry; assay type: cell-based, human; conditions: inhibitor 1 h before AT-2-inactivated HIV-1MN, 16 h
[21] = test system: neurones infected by the prions; assay type: cell-based
[22] = cGAMP stimulation, CellTiter Glo
[23] = 10 mg/kg daily oral, terminal plasma, ELISA
[24] = monocytes, inhibitor 1 h before MSU 50 μg/ml, 16 h

O=C(Nc1cccc(Nc2ncc(Br)c(NCCc3c[nH]cn3)n2)c1)N1CCCC1 [BX912]
secretion of the inflammatory cytokines (IL-6, IL-1β, TNFα, GM-CSF, IL-10) and the interferons (IFNI⅔, IFNβ, IFNg) [1]: inhibits | concentration from which the production of interferons (IFN) induced by cGAMP is blocked, according to a dosage effect ([2]; PBMCs, inhibitor 1 h before cGAMP 3 μg/ml, 24 h): ≥ 1 µM | viability of the PBMCs [2, 22]: without affecting the viability | production of inflammatory cytokines [3]: capable of inhibiting | intracellular production of inflammatory cytokines (TNFα) [3]: inhibits, according to a dosage effect | transcription of the genes encoding TNFα, IL6 and MCP1 induced by LPS [4]: does not block | expression of the CD69 marker at the surface of the T lymphocytes [5]: inhibits, according to a dosage effect | viability of the T lymphocytes [5]: without affecting the viability | effect on progression and severity of the disease ([6]; 0.5 mg/kg daily oral (group 3)): no ameliorative effect | total average arthritis scores (histopathology) ([6]; 0.5 mg/kg daily oral (group 3)): slight reductions | rate of progression of the disease ([6]; 2 mg/kg daily oral (group 4)): significant reduction | reduction in the (overall) severity of the disease at the end of the study ([6]; 2 mg/kg daily oral (group 4)): 56% | reduction in the (overall) severity of the disease at the end of the study ([6]; 10 mg/kg daily oral): 82% | progression of the disease ([6]; 10 mg/kg daily oral (group 5)): stopped | reduction in the terminal plasma levels of IL-1i ([6]; 10 mg/kg daily oral (group 5), ELISA): 37% | decrease in terminal plasma IL-6 [6, 23]: 62% | rate of progression of the disease and severity of the disease ([6]; daily oral, 0.5, 2 and 10 mg/kg): dose-dependent reduction | spontaneous production of TNFα [7]: inhibits | production of interferon induced by the STING ligand [8]: does not block | secretion of the inflammatory cytokines (IL-6, IL-1β, TNFα, P10) and the interferons (IFNα2, IFNβ, IFN11) [9]: inhibits | concentration from which the production of interferons (IFN) induced by cGAMP is blocked, according to a dosage effect ([10]; THP1-Dual, inhibitor 1 h before cGAMP 3 μg/ml, 24 h): ≥ 1 µM | viability of the THP1-Dual [10, 22]: without affecting the viability | transcription of the genes encoding TNFα, IL6 and MCP1 induced by LPS [11]: does not block | production of inflammatory cytokines (TNFα) [12]: inhibits, according to a dosage effect | concentration from which the transcription of the gene encoding TNFα, IL6 and MCP1 induced by LPS is reduced, according to a dosage effect [13]: ≥ 0.5 µM | secretion of interferons ([14]; curative: inhibitor 1 h after R848 (TLR7/8) stimulation, FIG. 15C): blocking | secretion of interferons ([14]; inhibitor during the R848 (TLR7/8) stimulation, FIG. 15B): blocking | secretion of interferons ([14]; preventive: inhibitor 1 h before R848 (TLR7/8) stimulation, FIG. 15A): blocking | secretion of the inflammatory cytokines (IL-6, IL-1β, TNFα, IP10, GM-CSF, IL-10) and the interferons (IFN11, IFN12/3, IFNβ, IFNg) ([15]; PBMCs, inhibitor 1 h before R848 5 μg/ml (TLR7/8), 24 h): inhibits | toxicity on the peripheral blood mononuclear cells (PBMCs) ([16]; PBMCs infected with HIV): no toxicity | toxicity on the peripheral blood mononuclear cells (PBMCs) ([16]; stimulation of the TLR4 receptors): no toxicity | toxicity on the immune cells (PBMCs) ([16]; stimulation of the TLR7/8 receptors): no toxicity | expression of the CD69 marker at the surface of the B lymphocytes [17]: inhibits, according to a dosage effect | viability of the B lymphocytes [17]: without affecting the viability | production of inflammatory cytokines [18]: capable of inhibiting | production of inflammatory cytokines (TNFα) ([18]; monocytes, inhibitor 1 h before LPS 100 ng/ml (TLR4), 16 h): inhibits, according to a dosage effect | production of inflammatory cytokines [19]: capable of inhibiting | intracellular production of IL-1β [19, 24]: inhibits | production of TNFα [19, 24]: inhibits | intracellular production of interferon IFNα [20]: inhibits | production of TNFα [20]: inhibits

C[C@@H](N)[C@H]1CC[C@H](C(=O)Nc2ccncc2)CC1 [Y27632]
production of inflammatory cytokines [3]: capable of inhibiting | intracellular production of inflammatory cytokines (TNFα) [3]: inhibits, according to a dosage effect | production and secretion of pro-inflammatory cytokines, such as IL-6, IL-1p and the interferons induced by the TLR7/8 stimulation [15]: inhibits | production of TNFα induced by the TLR7/8 stimulation [15]: inhibits | production of inflammatory cytokines [18]: capable of inhibiting | level of TNFα in the culture medium [21]: re-establishes | production of inflammatory cytokines [19]: capable of inhibiting

Cc1cncc2cccc(S(=O)(=O)N3CCCNCC3C)c12 (centres unmarked) [formula (VIII), dimethylfasudil]
production and secretion of pro-inflammatory cytokines, such as IL-6, IL-1p and the interferons induced by the TLR7/8 stimulation [15]: inhibits | production of TNFα induced by the TLR7/8 stimulation [15]: inhibits | level of TNFα in the culture medium [21]: re-establishes

C[C@]12C=CC(=O)C=C1CC[C@@H]1[C@@H]2[C@@H](O)C[C@@]2(C)[C@H]1CC[C@]2(O)C(=O)CO [prednisolone, reference compound]
reduction in the (overall) severity of the disease at the end of the study ([6]; 10 mg/kg daily oral): 95% | decrease in plasma IFNγ [6, 23]: 49% | decrease in plasma TNFα [6, 23]: 54% | decrease in terminal plasma IL-6 [6, 23]: 70% | total average arthritis scores (histopathology) ([6]; 10 mg/kg daily oral): lowest
